Experimental data from patent US20070149456A1, “Epithelial sodium channel inhibiting agents and uses therefor” (University of Pittsburgh, priority 2005, published 2007).
Entries after “also recorded” stand apart in the source; their conditions may differ.

Target: T1, αRtripleAβγ (Mus musculus, UniProt Q61180+Q9WU38+Q9WU39, R205A/R208A/R231A)
T1 construct: expressed in transfected cells; host or cells: Xenopus laevis oocytes (cRNA injection)
T1 sequence (Q61180 1-699 R205A/R208A/R231A): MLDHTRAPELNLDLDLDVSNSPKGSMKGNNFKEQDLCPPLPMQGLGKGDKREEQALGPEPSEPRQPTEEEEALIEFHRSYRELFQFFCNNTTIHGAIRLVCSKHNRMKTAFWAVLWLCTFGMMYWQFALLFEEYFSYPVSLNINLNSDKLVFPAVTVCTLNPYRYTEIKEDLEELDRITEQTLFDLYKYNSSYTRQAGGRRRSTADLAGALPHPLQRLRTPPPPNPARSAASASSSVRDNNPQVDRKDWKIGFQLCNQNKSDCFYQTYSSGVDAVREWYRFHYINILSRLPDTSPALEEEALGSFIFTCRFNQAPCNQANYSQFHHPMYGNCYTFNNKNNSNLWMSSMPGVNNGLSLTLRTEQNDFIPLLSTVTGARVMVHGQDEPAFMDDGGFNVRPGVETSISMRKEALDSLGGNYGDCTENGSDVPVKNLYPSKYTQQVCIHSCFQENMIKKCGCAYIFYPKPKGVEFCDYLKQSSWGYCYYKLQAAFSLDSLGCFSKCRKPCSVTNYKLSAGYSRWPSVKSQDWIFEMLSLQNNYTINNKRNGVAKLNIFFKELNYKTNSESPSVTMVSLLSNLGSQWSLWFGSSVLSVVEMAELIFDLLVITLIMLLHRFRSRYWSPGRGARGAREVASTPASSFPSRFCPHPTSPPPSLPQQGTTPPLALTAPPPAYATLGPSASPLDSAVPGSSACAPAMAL
T1 sequence (Q9WU38 1-638): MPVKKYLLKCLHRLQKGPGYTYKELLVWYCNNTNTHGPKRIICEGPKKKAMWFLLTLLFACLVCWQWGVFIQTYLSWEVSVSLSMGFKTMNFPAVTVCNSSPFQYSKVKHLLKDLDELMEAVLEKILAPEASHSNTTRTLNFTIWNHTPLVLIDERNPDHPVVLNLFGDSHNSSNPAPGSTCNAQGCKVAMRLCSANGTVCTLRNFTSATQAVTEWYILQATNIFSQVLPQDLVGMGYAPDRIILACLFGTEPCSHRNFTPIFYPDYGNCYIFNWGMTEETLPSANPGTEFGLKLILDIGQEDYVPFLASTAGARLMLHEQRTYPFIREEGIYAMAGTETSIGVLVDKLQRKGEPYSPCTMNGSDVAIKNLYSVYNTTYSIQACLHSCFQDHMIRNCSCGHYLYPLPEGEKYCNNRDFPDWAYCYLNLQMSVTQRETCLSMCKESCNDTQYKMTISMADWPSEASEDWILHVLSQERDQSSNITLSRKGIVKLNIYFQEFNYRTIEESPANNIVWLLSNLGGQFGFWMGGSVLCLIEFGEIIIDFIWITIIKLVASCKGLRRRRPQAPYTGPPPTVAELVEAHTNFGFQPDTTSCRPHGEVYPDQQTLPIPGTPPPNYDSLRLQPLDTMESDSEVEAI
T1 sequence (Q9WU39 1-655): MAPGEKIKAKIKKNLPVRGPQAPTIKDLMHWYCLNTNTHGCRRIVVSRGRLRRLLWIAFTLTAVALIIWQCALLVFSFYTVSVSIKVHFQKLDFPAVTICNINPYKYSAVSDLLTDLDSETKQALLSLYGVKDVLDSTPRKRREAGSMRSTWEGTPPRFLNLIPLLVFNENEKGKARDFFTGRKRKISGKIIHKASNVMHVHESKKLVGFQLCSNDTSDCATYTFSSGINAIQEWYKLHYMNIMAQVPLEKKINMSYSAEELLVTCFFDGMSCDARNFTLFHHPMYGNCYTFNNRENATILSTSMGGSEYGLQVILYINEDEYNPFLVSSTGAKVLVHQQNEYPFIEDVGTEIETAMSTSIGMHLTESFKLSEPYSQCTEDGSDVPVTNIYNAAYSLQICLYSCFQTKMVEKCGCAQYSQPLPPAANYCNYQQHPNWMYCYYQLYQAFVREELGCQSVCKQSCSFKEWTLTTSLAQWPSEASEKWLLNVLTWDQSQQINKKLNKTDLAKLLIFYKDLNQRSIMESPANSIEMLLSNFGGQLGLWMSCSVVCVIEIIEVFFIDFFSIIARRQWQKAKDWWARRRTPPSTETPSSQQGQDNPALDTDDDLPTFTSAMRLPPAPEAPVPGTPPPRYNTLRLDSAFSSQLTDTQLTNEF
Test: Two-electrode voltage clamp in oocytes expressing channels lacking furin cleavage of the α subunit
Type: cell-based
Details: 1 μM α-26
Text: Oocyte Expression—cRNAs for α, β, γ mouse ENaC (wild-type and mutant) subunits and mouse prostasin were synthesized with T3 or T7 m-Message mMachineTM (Ambion, Austin, Tex.). Subunits carrying furin cleavage consensus site mutations and the corresponding wild-type subunits have amino-terminal HA and carboxyl-terminal V5 tags (Hughey, R. P., Bruns, J. B., Kinlough, C. L., Harkleroad, K. L., Tong, Q., Carattino, M. D., Johnson, J. P., Stockand, J. D., and Kleyman, T. R. (2004) J. Biol. Chem. 279, 18111-18114 18). Stage V-VI Xenopus laevis oocytes were pretreated with 1.5 mg/ml of type IV collagenase and injected with 0.5-2 ng of cRNA/subunit. Injected oocytes were maintained as previously reported (Carattino, M. D., Hill, W. G., and Kleyman, T. R. (2003), Arachidonic Acid Regulates Surface Expression of Epithelial Sodium Channels, J Biol. Chem. 278, 36202-36213 29).
Two-electrode Voltage Clamp—Two-electrode voltage clamp (TEV) was performed as previously described (Carattino, M. D., Hill, W. G., and Kleyman, T. R. (2003) J Biol. Chem. 278, 36202-36213 29). The extracellular solution (TEV solution) was (in mM): 110 NaCl, 2 KCl, 1.54 CaCl2, 10 HEPES, pH 7.4, or otherwise as indicated. […] ENaC-mediated whole cell Na^+ currents, at −60 mV,were defined as the amiloride-sensitive component of the current. […]

## Ac-DLRGALPHPLQRLRTPPPPNPARSAR-NH2 [α-26]
  block of channels: does not block; also recorded: not blocked
